{"source": "paper PMC11658185", "about": "“Analysis of the quadruple lsu mutant reveals molecular determinants of the role of LSU proteins in sulfur assimilation in Arabidopsis” (The Plant Journal, 2024)", "biological_target": "T1, SiR (sulfite reductase; His-SiR) (Arabidopsis thaliana, UniProt Q9LZ66)", "T1 construct": "N-terminal His tag, expressed in E. coli Rosetta (DE3), expected size 68 kDa; truncations printed up to residue 642", "T1 sequence (Q9LZ66 62-642)": "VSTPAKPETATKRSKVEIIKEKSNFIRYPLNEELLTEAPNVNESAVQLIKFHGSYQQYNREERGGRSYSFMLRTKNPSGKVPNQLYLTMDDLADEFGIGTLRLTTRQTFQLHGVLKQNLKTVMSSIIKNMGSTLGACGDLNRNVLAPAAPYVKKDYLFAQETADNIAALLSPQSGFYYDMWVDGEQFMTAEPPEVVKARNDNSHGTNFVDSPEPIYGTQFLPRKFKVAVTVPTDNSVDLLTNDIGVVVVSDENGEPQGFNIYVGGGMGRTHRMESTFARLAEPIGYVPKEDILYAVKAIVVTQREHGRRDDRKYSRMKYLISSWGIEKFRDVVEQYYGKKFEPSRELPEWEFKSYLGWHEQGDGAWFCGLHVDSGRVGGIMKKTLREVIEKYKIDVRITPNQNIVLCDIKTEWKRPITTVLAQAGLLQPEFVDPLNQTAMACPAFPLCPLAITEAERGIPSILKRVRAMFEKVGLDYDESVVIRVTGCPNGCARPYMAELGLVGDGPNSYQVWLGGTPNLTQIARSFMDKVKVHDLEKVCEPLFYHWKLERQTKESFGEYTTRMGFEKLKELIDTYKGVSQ", "assay": "coupled assay: sulfide trapped as cysteine by O-acetylserine(thiol)lyase, ninhydrin, OD […] nm; sulfite varied", "format": "biochemical", "details": "pH 7.5, 25 mM HEPES, RT, 1 h; methyl viologen reduced by dithionite as electron donor; O-acetylserine 5 mM; without LSU1", "data": [{"smiles": "O=S(O)O", "note": "[sulfite]", "values": [{"measurement": "coupled assay: sulfide trapped as cysteine by O-acetylserine(thiol)lyase, ninhyd", "value": "Specific activities of the enzyme at various concentrations of: electron donor methyl‐viologen (a), substrate sulfite (b)"}]}]}
